“And” between values parts separate entries of the source, which are not always exact repeats. Equal entries are not always repeated.
How the values were obtained:
[1] = Dose-response of purified LHGFR for D-2-HG in buffer; type: binding
Experimental: Purified L-2-HG biosensors and different compounds were diluted by 50 mM Tris-HCl buffer (pH 7.4), mixed together in a black 96-well plate at a volume ratio of 3:1, and the fluorescence intensities were measured using an EnSight microplate reader (PerkinElmer, USA) with excitation at 430 nm, emission at 485 nm (mTFP) and 528 nm (Venus). The dose-response curves were fitted by OriginPro 2016 software (OriginLab) according to the following formula:1 R=Rmax+Rmin−Rmax/1+([L-2-HG]/Kd)^p where R, Rmin, and Rmax refer to the emission ratio of Venus to mTFP, ratio in the absence of L-2-HG, and ratio at saturation with L-2-HG, respectively. The [L-2-HG], Kd, and p refer to the L-2-HG concentration, apparent dissociation constant, and Hill slope, respectively. Emission spectra were recorded at 430 nm excitation, in steps of 2 nm. Excitation spectra were recorded using emission at 550 nm, excitation from 380 to 535 nm in steps of 2 nm.

[2] = Dose-response of LHGFR expressed in digitonin-permeabilized HEK293FT cells for L-2-HG; type: cell-based, human (HEK293FT cells)
Experimental: To characterize the sensitivity and specificity of LHGFR expressed in HEK293FT cells, cells were trypsinized 48 h following transfection and suspended in 1× Hank’s balanced salt solution supplemented with 20 mM HEPES. […] Digitonin at a concentration of 10 μM was used to induce cell permeabilization and deplete intracellular L-2-HG for in vivo response curves construction. Then, the fluorescence intensities were determined by a SpectraMax i3 fluorescence plate reader (Molecular Devices, USA) with excitation at 430 nm and emission at 485 nm (mTFP) and 528 nm (Venus). Basal L-2-HG concentration in HEK293FT cells under physiological conditions was determined by substituting the emission ratios of non-permeabilized HEK293FT cells into the calibrated in vivo response curves.

LhgR = assay: EMSA, effect of compounds on LhgR binding to the lhgR promoter region F2; set-up: species or system Pseudomonas putida W619; details: 30 mM compound, 10 nM F2, 70 nM LhgR
Experimental: Electrophoretic mobility shift assays (EMSAs) were carried out using the DNA fragment (F1 or F2) and purified LhgR. The DNA fragments were first amplified by primer pairs F1-F/F1-R and F2-F/F2-R, respectively. Then, either fragment at a concentration of 10 nM DNA was incubated with LhgR (0–160 nM) in 20 μL EMSA binding buffer (10 mM Tris-HCl [pH 7.4], 50 mM KCl, 0.5 mM EDTA, 10% [vol/vol] glycerol, and 1 mM dithiothreitol [DTT]). The binding reactions were carried out at 30 °C for 30 min. Electrophoresis was performed on 6% native polyacrylamide gels at 4 °C and 170 V (constant voltage) for about 45 min, followed by staining with SYBR green I (TaKaRa, China) and photographing. Analysis of the interaction between lhgO promoter region (F1) and LHGFR was performed using the same procedure.
To characterize the effector of LhgR, purified LhgR was first incubated with L-lysine, 5-aminovalerate, glutarate, L-2-HG, D-2-HG, 2-KG, or succinate at 30 °C for 15 min, followed by incubation with the added DNA fragments at 30 °C for 30 min. The mixtures were subsequently subjected to electrophoresis.

## O=C(O)CC[C@@H](O)C(=O)O [D-2-HG]
[1]; 2-HG concentration 0.01, Suppl. Fig. 9c
  Emission ratio of 528/485: 1.387 and 1.378 and 1.399
[1]; 2-HG concentration 0.01, Suppl. Fig. 9d
  Emission ratio of 528/485: 1.657 and 1.673 and 1.678
[1]; 2-HG concentration 0.1, Suppl. Fig. 9c
  Emission ratio of 528/485: 1.372 and 1.375 and 1.382
[1]; 2-HG concentration 0.1, Suppl. Fig. 9d
  Emission ratio of 528/485: 1.659 and 1.671 and 1.687
[1]; 2-HG concentration 0.2, Suppl. Fig. 9c
  Emission ratio of 528/485: 1.374 and 1.387 and 1.391
[1]; 2-HG concentration 0.2, Suppl. Fig. 9d
  Emission ratio of 528/485: 1.6456 and 1.673 and 1.682
[1]; 2-HG concentration 1, Suppl. Fig. 9c
  Emission ratio of 528/485: 1.374 and 1.373 and 1.392
[1]; 2-HG concentration 1, Suppl. Fig. 9d
  Emission ratio of 528/485: 1.662 and 1.681 and 1.683
[1]; 2-HG concentration 2, Suppl. Fig. 9c
  Emission ratio of 528/485: 1.367 and 1.388 and 1.39
[1]; 2-HG concentration 2, Suppl. Fig. 9d
  Emission ratio of 528/485: 1.647 and 1.673 and 1.676
[1]; 2-HG concentration 10, Suppl. Fig. 9c
  Emission ratio of 528/485: 1.374 and 1.398 and 1.395
[1]; 2-HG concentration 10, Suppl. Fig. 9d
  Emission ratio of 528/485: 1.662 and 1.69 and 1.707
[1]; 2-HG concentration 20, Suppl. Fig. 9c
  Emission ratio of 528/485: 1.362 and 1.378 and 1.389
[1]; 2-HG concentration 20, Suppl. Fig. 9d
  Emission ratio of 528/485: 1.665 and 1.705 and 1.723
[1]; 2-HG concentration 100, Suppl. Fig. 9c
  Emission ratio of 528/485: 1.381 and 1.406 and 1.415
[1]; 2-HG concentration 100, Suppl. Fig. 9d
  Emission ratio of 528/485: 1.815 and 1.829 and 1.846
[1]; 2-HG concentration 200, Suppl. Fig. 9c
  Emission ratio of 528/485: 1.404 and 1.432 and 1.433
[1]; 2-HG concentration 200, Suppl. Fig. 9d
  Emission ratio of 528/485: 1.932 and 1.978 and 1.981
[1]; 2-HG concentration 1000, Suppl. Fig. 9c
  Emission ratio of 528/485: 1.525 and 1.561 and 1.565
[1]; 2-HG concentration 1000, Suppl. Fig. 9d
  Emission ratio of 528/485: 2.255 and 2.2953 and 2.327
[1]; 2-HG concentration 2000, Suppl. Fig. 9c
  Emission ratio of 528/485: 1.698 and 1.693 and 1.687
[1]; 2-HG concentration 2000, Suppl. Fig. 9d
  Emission ratio of 528/485: 2.559 and 2.546 and 2.55

## O=C(O)CC[C@H](O)C(=O)O [L-2-HG, L-2-Hydroxyglutarate]
[2]; Fig. 6c, L-2-HG concentration 0.01
  Normalized emission ratio: 0.9714 and 1.018 and 1.011
[2]; Fig. 6c, L-2-HG concentration 0.1
  Normalized emission ratio: 1.002 (2×) and 0.9784
[2]; Fig. 6c, L-2-HG concentration 1
  Normalized emission ratio: 1.006 and 0.9618 and 1.048
[2]; Fig. 6c, L-2-HG concentration 10
  Normalized emission ratio: 1.045 and 1.118 and 1.137
[2]; Fig. 6c, L-2-HG concentration 20
  Normalized emission ratio: 1.133 and 1.12 and 1.163
[2]; Fig. 6c, L-2-HG concentration 100
  Normalized emission ratio: 1.245 and 1.312 and 1.322
[2]; Fig. 6c, L-2-HG concentration 200
  Normalized emission ratio: 1.303 and 1.3035 and 1.367
[2]; Fig. 6c, L-2-HG concentration 1000
  Normalized emission ratio: 1.414 and 1.364 and 1.401
[2]; Fig. 6c, L-2-HG concentration 2000
  Normalized emission ratio: 1.387 and 1.439 and 1.425
[2]; Fig. 6c, L-2-HG concentration 10000
  Normalized emission ratio: 1.443 and 1.404 and 1.415
[2]; L-2-HG concentration 0.01, Supplementary Fig. 17c
  Normalized emission ratio: 0.9984 and 1.014 and 0.9873
[2]; L-2-HG concentration 0.01, Supplementary Fig. 18c
  Normalized emission ratio: 0.9865 and 0.9714 and 1.042
[2]; L-2-HG concentration 0.1, Supplementary Fig. 17c
  Normalized emission ratio: 1 and 1.004 and 1.02
[2]; L-2-HG concentration 0.1, Supplementary Fig. 18c
  Normalized emission ratio: 0.9909 and 1.037 and 0.9822
[2]; L-2-HG concentration 1, Supplementary Fig. 17c
  Normalized emission ratio: 1.007 and 1.056 and 1.0486
[2]; L-2-HG concentration 1, Supplementary Fig. 18c
  Normalized emission ratio: 0.9662 and 0.9722 and 0.9935
[2]; L-2-HG concentration 10, Supplementary Fig. 17c
  Normalized emission ratio: 1.22 and 1.297 and 1.235
[2]; L-2-HG concentration 10, Supplementary Fig. 18c
  Normalized emission ratio: 0.9752 and 1.056 and 0.9703
[2]; L-2-HG concentration 20, Supplementary Fig. 17c
  Normalized emission ratio: 1.319 and 1.273 and 1.318
[2]; L-2-HG concentration 20, Supplementary Fig. 18c
  Normalized emission ratio: 1.003 and 1.067 and 0.9797
[2]; L-2-HG concentration 100, Supplementary Fig. 17c
  Normalized emission ratio: 1.392 and 1.387 and 1.431
[2]; L-2-HG concentration 100, Supplementary Fig. 18c
  Normalized emission ratio: 1.048 and 0.9825 and 0.9723
[2]; L-2-HG concentration 200, Supplementary Fig. 17c
  Normalized emission ratio: 1.3826 and 1.447 and 1.484
[2]; L-2-HG concentration 200, Supplementary Fig. 18c
  Normalized emission ratio: 0.9116 and 1.038 and 1.008
[2]; L-2-HG concentration 1000, Supplementary Fig. 17c
  Normalized emission ratio: 1.434 and 1.459 and 1.447
[2]; L-2-HG concentration 1000, Supplementary Fig. 18c
  Normalized emission ratio: 0.9678 and 0.9844 and 0.9663
[2]; L-2-HG concentration 2000, Supplementary Fig. 17c
  Normalized emission ratio: 1.455 and 1.475 and 1.401
[2]; L-2-HG concentration 2000, Supplementary Fig. 18c
  Normalized emission ratio: 0.9838 and 0.9876 and 0.9675
[2]; L-2-HG concentration 10000, Supplementary Fig. 17c
  Normalized emission ratio: 1.475 and 1.44 and 1.4468
[2]; L-2-HG concentration 10000, Supplementary Fig. 18c
  Normalized emission ratio: 0.9794 and 1.103 and 1.106
LhgR
  Effect on LhgR binding to the lhgR promoter region F2: prevent LhgR binding to the lhgR promoter

— paper PMC8206213, “An L-2-hydroxyglutarate biosensor based on specific transcriptional regulator LhgR” (Nature Communications, 2021)
